{"source": "patent EP3495372B1", "about": "(priority 2017, dated 2019)", "key": {"[1]": {"tested_on": "SHSY-5Y human neuroblastoma cell line", "experiment": "Antitumor activity, MTT and LDH assays", "format": "cell-based", "conditions": "dose-dependent", "description": "(§1) Cytotechnol. 2015; 67:299-309.\nAntitumor activity of BLA and MEM was tested on SHSY-5Y human neuroblastoma cell line using MTT and LDH assays. Cells were grown to near-confluency before treatment. Growth of the cell line was inhibited by both drug application in a dose-dependent manner."}, "[2]": {"tested_on": "cultured human lymphocytes", "experiment": "SCE assay (genotoxicity)", "format": "cell-based", "description": "(§2) All volunteers have signed informed consent.\nSCE assay: to provide successive visualization of SCEs, 5-bromo-2-deoxyuridine was added at culture cells. Exactly 70 h and 30 min after beginning of the incubations, demecolcine ([…]) was added to the cultures. After hypotonic treatment (0.075 M KCl), followed by three repetitive cycles of fixation in methanol/acetic acid solution (3:1, v/v), centrifugation and re-suspension, the cell suspension was dropped onto chilled, grease-free microscopic slides, air-dried, aged for three days, and then differentially stained for the inspection of the SCE rate according to the fluorescence plus Giemsa (FPG) procedure. For each treatment condition, well-spread twenty-five second division metaphases containing 42-46 chromosomes per cell were scored and the values obtained were calculated as SCEs per cell.\nThe frequencies of sister chromatid exchanges (SCEs) with increasing BLA concentrations were investigated in cultured human lymphocytes."}, "[3]": {"biological_target": "T1, acetylcholinesterase (AChE) (Homo sapiens, UniProt P22303)", "T1 construct": "endogenous in cells", "T1 sequence (P22303 32-614)": "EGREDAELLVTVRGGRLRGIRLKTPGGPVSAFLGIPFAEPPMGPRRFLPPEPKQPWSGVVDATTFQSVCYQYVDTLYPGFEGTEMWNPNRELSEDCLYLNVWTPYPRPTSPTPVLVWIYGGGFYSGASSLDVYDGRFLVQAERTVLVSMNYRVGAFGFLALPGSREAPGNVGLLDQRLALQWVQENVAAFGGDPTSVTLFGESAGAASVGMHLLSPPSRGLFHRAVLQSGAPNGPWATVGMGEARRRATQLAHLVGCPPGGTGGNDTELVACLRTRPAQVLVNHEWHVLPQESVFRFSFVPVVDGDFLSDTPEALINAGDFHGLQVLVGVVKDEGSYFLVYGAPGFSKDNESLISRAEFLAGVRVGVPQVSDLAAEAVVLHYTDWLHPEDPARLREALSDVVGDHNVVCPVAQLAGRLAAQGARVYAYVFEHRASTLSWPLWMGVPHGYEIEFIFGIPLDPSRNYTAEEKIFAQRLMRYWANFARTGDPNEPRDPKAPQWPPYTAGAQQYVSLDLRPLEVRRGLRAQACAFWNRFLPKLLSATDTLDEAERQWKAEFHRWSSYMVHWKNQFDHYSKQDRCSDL", "experiment": "AChE activity in cellular model of Alzheimer's disease", "format": "cell-based", "conditions": "with 20 µM Aβ1-42, 24 h", "description": "Determination of AChE activity: the activity of AChE within the cellular Alzheimer Disease's model was measured by the Acetylcholinesterase Assay Kit (Colorimetric) from Abcam^(R) (Cambridge, MA, USA) according to the manufacturer's recommended protocol.\nAChE activity was evaluated in differentiated SH-SY5Y cells treated with BLA, LA, MEM (25 and 50 µM) or media alone for 24 h."}, "[4]": {"tested_on": "differentiated SH-SY5Y cells", "experiment": "TAC and TOS analysis in cellular model of Alzheimer's disease", "format": "cell-based, human", "conditions": "co-treatment with Aβ1-42", "description": "TAC and TOS analysis: the automated TAC and TOS assays were carried out by commercially available kits (Rel Assay^(R) Diagnostics, Gaziantep, Turkey) on samples from the cultures.\n(§3) Control cells (n = 6) were cultured under normal conditions. 1% Triton X, ascorbic acid (10 µM) and hydrogen peroxide (H2O2, 25 µM) were used as positive controls for cell viability, TAC and TOS analysis, respectively.\nFigure 5 and 6 show the effects of BLA and MEM treatments on TAC and TOS levels in cellular model of Alzheimer's disease, respectively."}, "[5]": {"tested_on": "cultured human blood cells", "experiment": "Nucleic acid oxidation, 8-hydroxy-2'-deoxyguanosine assay", "format": "cell-based", "description": "as §2\nNucleic acid oxidation: 8-hydroxy-2'-deoxyguanosine assay kits (Cayman Chemical®) was used for determining 8- OH-dG levels in the cultures. It is a competitive assay that can be used for the quantification of 8-OHdG in homogenates and recognizes both free 8-OHdG and DNA-incorporated 8-OH-dG. This assay depends on the competition between 8-OH-dG and 8-OH-dGacetylcholinesterase (AChE) conjugate for a limited amount of 8-OH-dG monoclonal antibody (Abdel-Wahab BA, Metwally ME. Ginkgo biloba enhances the anticonvulsant and neuroprotective effects of sodium valproate against kainic acid-induced seizures in mice. J Pharmacol Toxicol. 2011; 6:679-690). All procedures were carried out in accordance with the provider's manual.\nThe levels of 8-OH-dG, a sensitive marker of oxidative DNA damage, were quantified about mitomycin (MMC) treatment. […] On the contrary, 8-OH-dG levels were not increased in the blood cells that were treated with BLA, MEM, and LA concentrations."}, "[6]": {"tested_on": "human neuron-like cells", "experiment": "Apoptosis-Necrosis assay (Annexin V-FITC/PI flow cytometry)", "format": "cell-based", "conditions": "concentration not given", "description": "Apoptosis-Necrosis assay: the frequencies of viable, apoptotic and necrotic cells were detected with the Annexin V-FITC apoptosis detection Kit I (BD Pharmingen, USA). Briefly, 5 x 10^4 cells were collected by centrifugation and cells resuspended in 500 µL of 1X binding buffer. Then, 5 µL of Annexin V-FITC and 5 µl of propidium iodide (PI 50 µg/ml) were added to the cultures and incubated 5 min in the dark. After that, cells fixed with 4% paraformaldehyde in phosphate buffered saline at 4 °C for 30 min. Cells from each well were stained according to the manufacturer's instructions and analyzed using a flow cytometer (CyFlow Cube 6, Partec, Germany). A computer system was used for data acquisition and analysis. Four different populations of cells are detected with the Annexin V-FITC kit: viable cells that are annexin negative and PI negative and express no fluorescence, early apoptotic cells that are annexin positive and PI negative and that express green fluorescence, late apoptotic/necrotic cells that are annexin positive and PI positive and that express green and orange fluorescence, necrotic cells that are annexin negative and PI positive and that express orange fluorescence (Majstorovic I, Vucevic D, Pavlovic B, Vasilijic S, Colic M. An anti-DEC-205 monoclonal antibody stimulates binding of thymocytes to rat thymic dendritic cells and promotes apoptosis of thymocytes. Cent Eur J Immunol. 2014; 39:411-418) .\nBLA was considered as more able to protect the human neuron-like cells from Aβ1-42-induced necrosis and late apoptosis than LA or MEM."}, "[7]": {"tested_on": "differentiated SH-SY5Y human neuroblastoma cells", "experiment": "MTT assay, neuroprotective effects against Aβ1-42 cytotoxicity", "format": "cell-based", "conditions": "24 h, read-out: increase in the cell viability (MTT assay)", "description": "Cell cultures and differentiation: SH-SY5Y cell line were growth in DMEM:F12 (1:1) media including 10% FBS and 1% penicillin/streptomycin at 37 °C and 5% CO2 until cells reach confluence. Then, cells harvested via using trypsin/EDTA solution and transferred to 48 well plates. For differentiation, media were changed to supplemented media with 10 µg/mL retinoic acid and incubated for 5 days. Finally, media were changed into serum free media supplementing with both 10 µM retinoic acid and 25 ng/mL BDNF. Differentiated cells were determined under invert microscope and the cells were used within 10 days (Encinas M, Iglesias M, Liu Y, Wang H, Muhaisen A, Ceña V, Gallego C, Comella JX. Sequential treatment of SH-SY5Y cells with retinoic acid and brain-derived neurotrophic factor gives rise to fully differentiated, neurotrophic factor-dependent, human neuron-like cells. J. Neurochem. 2002; 75:991-1003 e Cheung YT, Lau WKW, Yu MS, Lai CSW, Yeung SC, So KF, Chang RCC. Effects of all-trans-retinoic acid on human SH-SY5Y neuroblastoma as in vitro model in neurotoxicity research. Neurotoxicol. 2009; 30:127-135).\nas §3\nThe cultures without BLA, MEM, or LA were studied as negative control group. 1% Triton-X was added to the culture media to provide negative control group. MTT reduction and LDH release observed after 24 h of Aβ1-42-exposure at 20 µM."}, "[8]": {"tested_on": "differentiated SH-SY5Y human neuroblastoma cells", "experiment": "LDH assay, neuroprotective effects against Aβ1-42 cytotoxicity", "format": "cell-based", "conditions": "with 20 µM Aβ1-42, 24 h", "description": "Cell cultures and differentiation: SH-SY5Y cell line were growth in DMEM:F12 (1:1) media including 10% FBS and 1% penicillin/streptomycin at 37 °C and 5% CO2 until cells reach confluence. Then, cells harvested via using trypsin/EDTA solution and transferred to 48 well plates. For differentiation, media were changed to supplemented media with 10 µg/mL retinoic acid and incubated for 5 days. Finally, media were changed into serum free media supplementing with both 10 µM retinoic acid and 25 ng/mL BDNF.\nas §1, §3\nThe cultures without BLA, MEM, or LA were studied as negative control group. 1% Triton-X was added to the culture media to provide negative control group."}, "[9]": {"tested_on": "differentiated SH-SY5Y cells", "experiment": "Apoptosis detection by Hoechst 33258 staining", "format": "cell-based, human", "conditions": "25 and 50 µM co-treatment, 20 µM Aβ1-42, 24 h", "description": "Apoptosis detection by Hoechst 33258 staining: Hoechst 33258 staining was used to detect apoptotic nuclei. […] Then, cells fixed with 4% paraformaldehyde in phosphate buffered saline at 4 °C for 30 min. After washing cells with PBS, the nuclear DNAs were incubated with […] Hoechst 33258 fluorescent dye for 5 min at room temperature. Cells were observed and photographed under a fluorescence microscopy (Leica® DM IL LED)."}, "[10]": {"conditions": "cited from earlier work"}}, "data": [{"smiles": "CC12CC3CC(C)(C1)CC(N)(C3)C2", "note": "[MEM, memantine]", "values": [{"measurement": "antitumor effects (growth inhibition)", "setting": "[1]", "result": "moderate antitumor effects"}, {"measurement": "frequencies of sister chromatid exchanges (SCEs)", "setting": "[2]", "result": "not higher than the control group"}, {"measurement": "reduced Aβ-induced AChE activity", "setting": "[3]; 25 µM", "result": 14.57, "unit": "%"}, {"measurement": "reduced Aβ-induced AChE activity", "setting": "[3]; 50 µM", "result": 19.47, "unit": "%"}, {"measurement": "Aβ1-42-induced decreases of TAC and increases of TOS levels", "setting": "[4]", "result": "modulated"}, {"measurement": "8-OH-dG levels", "setting": "[5]", "result": "not increased"}, {"measurement": "decreased the necrotic cell percentage by Aβ1-42", "setting": "[6]", "result": 65.97, "unit": "%"}, {"measurement": "viability at 25 µM", "setting": "[7]", "result": 17.3, "unit": "%"}, {"measurement": "viability at 50 µM", "setting": "[7]", "result": 19.4, "unit": "%"}, {"measurement": "viability at 100 µM", "setting": "[7]", "result": 17.1, "unit": "%"}, {"measurement": "increase in the cell viability (inhibited LDH release)", "setting": "[8]; 25 µM", "result": 56.81, "unit": "%"}, {"measurement": "increase in the cell viability (inhibited LDH release)", "setting": "[8]; 50 µM", "result": 59.15, "unit": "%"}, {"measurement": "increase in the cell viability (inhibited LDH release)", "setting": "[8]; 100 µM", "result": 57.28, "unit": "%"}, {"measurement": "nuclear integrity and apoptosis by Aβ1-42 (Hoechst 33258)", "setting": "[9]", "result": "protected nuclear integrity and inhibited apoptosis"}]}, {"smiles": "CO[C@@]12[C@H](COC(N)=O)C3=C(C(=O)C(C)=C(N)C3=O)N1C[C@@H]1N[C@@H]12", "note": "[MMC, mitomycin]", "values": [{"measurement": "8-OH-dG concentrations", "setting": "[5]; 10^-7 M, 24 h, positive control", "result": "significantly increased"}]}, {"smiles": "N[C@@H](Cc1ccc(B(O)O)cc1)C(=O)O", "note": "[p-borophenyalanine]", "values": [{"measurement": "safe for humans at doses up to", "setting": "[10]", "result": "up to 900 mg/kg"}]}]}
